Patent US20260183393A1, “IMMUNOSUPPRESSANT-RESISTANT MODIFIED ALLOGENEIC MODIFIED IMMUNE CELLS AND METHODS FOR USE THEREOF” (Beam Therapeutics Inc., priority 2023, published 2026)

Assays:
alloreactive T cells = test: Mixed leukocyte reaction: priming and proliferation of alloreactive T cells with immunosuppressants; assay type: cell-based, human; settings: for proliferation of alloreactive T cells: CellTrace Violet-labeled T cells with PBMCs from HLA disparate donors, RPM 10^−2 to 10^−4 mg mL^−1, TAC 10^0 to 10^−2 mg mL^−1, relative to VEH; for proliferation of the T cells: rapamycin 0.001 μg/mL or tacrolimus 0.1 μg/mL, HLA-mismatched PBMCs 1:1, day 7, CellTrace dilution
Procedure: Purified primary human T cells (effector cells) from a donor (Donor #1) were labeled with CellTrace™ dye and co-cultured at a 1:1 effector-to-target cell ratio with HLA-mismatched peripheral blood mononuclear cells (PBMCs) from another donor (Donor #2) that were pretreated with mitomycin C to inhibit their growth (mitomycin C inhibits cell growth). The cells were co-cultured in the presence of the immunosuppressant rapamycin (0.001 μg/mL) or tacrolimus (0.1 μg/mL) or in the presence of dimethylsulfoxide (DMSO) in place of any immunosuppressant. The immunosuppressant or DMSO was re-administered to the cultures every 48 hours. On day 7, proliferation was measured as dilution of the CellTrace™ dye assessed using flow cytometry. The numbers at the lower-left of each plot indicate the percent of total cells counted falling within the indicated region.
First, human leukocyte antigen (HLA) mismatched peripheral blood mononuclear cells (PBMCs) from a donor were co-cultured in the presence and absence of an immunosuppressant agents with T cells from a different donor that were labeled using a CellTrace dye for measuring cell proliferation. The peripheral blood mononuclear cells (PBMC) cells were treated with mitomycin C prior to being co-cultured to prevent proliferation of the PBMC cells.
It was first determined if immunosuppressants mitigate the in vitro priming of alloreactive T cells. To do so, peripheral blood mononuclear cells and CellTrace Violet-labeled T cells from HLA disparate donors were cultured in the presence of rapamycin (RPM), tacrolimus (TAC) or vehicle (VEH) control. […] Next, it was tested whether immunosuppressants alleviated in vivo T cell-driven rejection of allogeneic HLA-I CAR-T cells. Five cohorts of human immune system (HIS) mice derived from unrelated human donors were injected daily with RPM, TAC, or VEH for 2 weeks, and at 1-day post-treatment initiation all mice were co-infused with an equal amount of allogeneic HLA^+ and HLA-deficient CAR-T cells (FIG. 16A). Cohorts #3 and #4 also received syngeneic human immune system (HIS) mouse-derived CAR-T cells to control for autologous T cell persistence. […]
For the study described in FIGS. 21A to 21C, CellTrace Violet (Thermo Fisher Scientific) CD3^+ T cells (effectors) and CD3-depleted PBMCs (targets) from HLA disparate donors were cultured in triplicate at a 1:1 ratio in complete medium supplemented with 300 U mL^−1 IL-2. […] Frequency of dividing effector CD8^+ and CD4^+ T cells was measured at day 5 and 7 post-stimulation by flow cytometry.

CD19^+ B cells = test: B cell aplasia and 19CAR-T cell persistence in HIS mice; assay type: in vivo, huCD34-NCG mice; settings: TAC 10 mg kg^−1 daily; 10 days post-T cell infusion
Description: FIGS. 19B and 19C provide a bar graph of cell concentration (FIG. 19B) and flow cytometry contour plots (FIG. 19C) for peripheral CD19^+ B cells 6 days post-T cell infusion from mice in Groups 1-4. FIGS. 19D and 19E provide bar graphs showing total CD19^+ B cells from individual mouse splenic (FIG. 19D) and bone marrow (FIG. 19E) tissue 10 days post-T cell infusion in Groups 1-4. FIG. 19F provides a bar graph showing geometric median fluorescent intensity (MFI) of CD19 expression on residual peripheral CD22^+ B cells 6 days post-T cell infusion from mice in Groups 1-4. FIG. 19G provides a bar graph showing concentration of peripheral CD22^+CD19^dim B cells 6 days post-T cell infusion from mice in Groups 1-4. […] Statistical significance was calculated by Wilcoxon rank sum test (FIGS. 19B, 19D, and 19E) and Kruskall-Wallace test with Dunn's test for multiple comparisons (FIGS. 19F, 19G, 19I, and 19J).
For the studies described in FIGS. 19A to 19J, huCD34-NCG mice were used in Cohort #6 (n=16), Cohort #7 (n=12), Cohort #8 (n=24), and Cohort #9 (n=12) and were evenly distributed into 4 groups via matched distribution based on degree of human T cell engraftment using StudyLog. […] Endogenous B cell aplasia and persistence of 19CAR-T cells was monitored at 7- and 11-days post-drug treatment via blood draw from the submandibular vein and tissue collection at necropsy.

Raji = test: Cell growth kinetics with rapamycin, Raji; assay type: cell-based, human; settings: RPM at different concentrations
Procedure: (§1) FIGS. 26A to 26E provide histograms and plots showing malignant B cell lines were sensitive to Rapamycin treatment in vitro. FIG. 26A provides histograms showing geometric median fluorescent intensity (MFI) of phosphorylated mTOR (pS2448), S6 (pS235/[…]) and 4EBP1 (pT36/T45) in JeKo-1, Raji and Nalm6 cell lines, as well as primary human monocytes and bulk lymphocytes. FIGS. 26B to 26D relate to an experiment where JeKo-1, Raji and Nalm6 cells were treated with DMSO or Rapamycin (RPM) and then analyzed for phosphorylation level of mTOR (FIG. 26B), S6 (FIG. 26C) and 4EBP1 (FIG. 26D). FIG. 26E provides plots showing JeKo-1, Raji and Nalm6 cell growth kinetics after treatment with DMSO or RPM at different concentrations. Symbols indicate mean and error bars show ±s.e.m.

Nalm6 = test: Cell growth kinetics with rapamycin, Nalm6; assay type: cell-based, human; settings: RPM at different concentrations
Procedure: as §1

JeKo-1 = test: Cell growth kinetics with rapamycin, JeKo-1; assay type: cell-based, human; settings: RPM at different concentrations
Procedure: as §1

| Compound | proliferation of alloreactive T cells (alloreactive T cells) | proliferation of the T cells (alloreactive T cells) | allorejection of HLA-I^+ 19CAR-T cells in peripheral blood and spleen (CD19^+ B cells) | in vitro proliferation (Raji) | in vitro proliferation (Nalm6) | in vitro proliferation (JeKo-1) |
| --- | --- | --- | --- | --- | --- | --- |
| C=CC[C@@H]1/C=C(\C)C[C@H](C)C[C@H](OC)[C@H]2O[C@@](O)(C(=O)C(=O)N3CCCC[C@H]3C(=O)O[C@H](/C(C)=C/[C@@H]3CC[C@@H](O)[C@H](OC)C3)[C@H](C)[C@@H](O)CC1=O)[C@H](C)C[C@@H]2OC [tacrolimus, Tacrolimus] | severely attenuated the proliferation of alloreactive T cells | hindered proliferation of the T cells | protected HLA-I^+ 19CAR-T cells |  |  |  |
| CO[C@H]1C[C@@H]2CC[C@@H](C)[C@@](O)(O2)C(=O)C(=O)N2CCCC[C@H]2C(=O)O[C@H]([C@H](C)C[C@@H]2CC[C@@H](O)[C@H](OC)C2)CC(=O)[C@H](C)/C=C(\C)[C@@H](O)[C@@H](OC)C(=O)[C@H](C)C[C@H](C)/C=C/C=C/C=C/1C [rapamycin, Rapamycin] | severely attenuated the proliferation of alloreactive T cells | hindered proliferation of the T cells |  | inhibited in vitro proliferation | inhibited in vitro proliferation | inhibited in vitro proliferation |
